Data on ten molecules can be found in ChEMBL document CHEMBL1201862, “PubChem BioAssay data set” (2004).

Assay in all cases: NCI anticancer screen, dose series, 48 h
Test [1] concerns A498.
Test [2] relates to BT-549.
Test [3] concerns CAKI-1.
The test system of test [4] is HCC 2998.
Test [5] deals with HL-60.
Test [6] relates to HOP-62.
Test [7] relates to IGROV-1.
Test [8] deals with Malme-3M.
The subject of test [9] is NCI-H460.
For test [10], the system named is OVCAR-3.
The subject of test [11] is OVCAR-4.
Test [12] deals with OVCAR-5.
Test [13] concerns SF-295.
Test [14] concerns SK-MEL-5.
Test [15] deals with SN12C.
The test system of test [16] is SNB-19.
Test [17] relates to SR.
Test [18] deals with T47D.
Test [19] has as its system TK-10.
The test system of test [20] is UO-31.

Each structure is given as a SMILES string.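 Cells were grown in 96-well plates and exposed to each compound for 48 hours at five concentrations; endpoints were interpolated linearly between bracketing concentrations, or set to the highest concentration if not reached. The concentration for 50% growth inhibition is given as GI50.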 The source made the active and inactive calls. Rule as the data show it: active = GI50 up to about 1.1 µM and inactive = higher. A value given as a limit tells only on which side of the number the result lay.

In the case of `CCCCNCC(=O)O[C@]1(CC)C(=O)OCc2c1cc1n(c2=O)Cc2cc3ccccc3nc2-1`, the GI50 in test [1] was 0.741 µM (active); in [2], 0.391 µM (active); in test [3], 0.0647 µM (active); in [4], 1.74 µM (inactive); in [5], 0.084 µM (active); in test [6], < 0.0277 µM (active). Besides, the GI50 is 2.3 µM (inactive) in test [7]; 2.84 µM (inactive) in test [8]; 0.0261 µM (active) in test [9]; 2.16 µM (inactive) in test [10]; 7.19 µM (inactive) in test [11]; 0.535 µM (active) in [12]. Also, the GI50 was 0.0705 µM (active) in [13]; 0.277 µM (active) in test [14]; 0.0622 µM (active) in test [15]; 0.0542 µM (active) in [16]; 0.0101 µM (active) in test [17]; 0.219 µM (active) in test [18]. In addition, the GI50 is 6.15 µM (inactive) in [19] and 0.207 µM (active) in test [20].

Turning to `O=c1cc(/N=N\c2ccc(Cl)c(Cl)c2)[nH]c(=O)[nH]1`, the GI50 in [1] was 15.3 µM (inactive); in test [2], 2.21 µM (inactive); in test [3] it was 2.07 µM (inactive); in [4], 2.45 µM (inactive); in test [5], 0.292 µM (active); in test [6], 6.43 µM (inactive). Also, the GI50 in test [7] is 1.57 µM (inactive); in test [8], 2.23 µM (inactive); in [9], 2.47 µM (inactive); in test [10] it was 2.36 µM (inactive); in [11], 2.91 µM (inactive); in [12], 4.85 µM (inactive). Further, the GI50 in test [13] is 15.3 µM (inactive); in test [14], 4.89 µM (inactive); in test [15], 2.11 µM (inactive); in test [16], 12.1 µM (inactive); in test [17] it was 0.337 µM (active); in [18], 2.56 µM (inactive). In addition, the GI50 in [19] was 1.78 µM (inactive); in test [20], 2.07 µM (inactive).

`O=CC(O)C(O)C(O)C(O)C(=O)NCCCCCCCCCCCCNC(=O)C(O)C(O)C(O)C(O)C=O` (configuration not stated): the GI50 in [1], in test [2], in [4], in test [5], in test [6] and in test [7] was > 100 µM (inactive) in each case. Besides, the GI50 in test [8], in [9], in test [10], in test [11], in [12] and in [13] was > 100 µM (inactive) each time. Further, the GI50 in test [14], in test [16], in test [17], in test [18], in [19] and in test [20] was > 100 µM (inactive) in each case.

Take `CC[C@@]12CCCN3CC[C@]4(c5cccc(OC)c5N(C(C)=O)[C@@H]4CC1)[C@H]32` [ASPIDOSPERMINE]: the GI50 is 42.7 µM (inactive) in test [1]; 86.9 µM (inactive) in test [2]; > 100 µM (inactive) in test [3]; 23 µM (inactive) in test [4]; 20.7 µM (inactive) in test [5]; > 100 µM (inactive) in test [6]. Further, the GI50 was 24.2 µM (inactive) in test [7]; > 100 µM (inactive) in test [8]; 54.3 µM (inactive) in test [9]; > 100 µM (inactive) in [10]; 92.9 µM (inactive) in test [11]; > 100 µM (inactive) in [12]. Moreover, the GI50 in test [13] is 46.6 µM (inactive); in test [14], 44.3 µM (inactive); in [15], > 100 µM (inactive); in [16], > 100 µM (inactive); in test [17] it was 27.7 µM (inactive); in [18], > 100 µM (inactive). Besides, the values for the GI50 in [19] and in test [20] were 56.5 µM (inactive) and 68.5 µM (inactive), respectively.

For `NCCCN1CCN(CCCNc2ccc3nnn4c5ccccc5c(=O)c2c34)CC1`, the GI50 in test [1] was 18.6 µM (inactive); in test [2], 5.81 µM (inactive); in test [3], 14.6 µM (inactive); in test [4], 11.9 µM (inactive); in test [5] it was 8.59 µM (inactive); in [6] it was 13.7 µM (inactive). The GI50 in test [7] was 13.5 µM (inactive); in test [8], 18.8 µM (inactive); in [9], 18.4 µM (inactive); in [10], 37.4 µM (inactive); in test [11] it was 11.8 µM (inactive); in [12], 29.6 µM (inactive). The GI50 in [13] was 16.8 µM (inactive); in test [14], 13.5 µM (inactive); in test [15], 9.02 µM (inactive); in test [16] it was 12.8 µM (inactive); in test [17] it was > 100 µM (inactive); in [18], 30.2 µM (inactive). In addition, the GI50 was 24.9 µM (inactive) in [19] and 22.1 µM (inactive) in test [20].

For `CCCCCCCCCCCCCCCC[N+](C)(C)CCl`, the GI50 is 8.67 µM (inactive) in test [1]; 2.29 µM (inactive) in test [2]; 2.67 µM (inactive) in test [3]; 1.66 µM (inactive) in [4]; 0.964 µM (active) in test [5]; 2.29 µM (inactive) in test [6]. The GI50 is 0.585 µM (active) in test [7]; 2.65 µM (inactive) in test [8]; 1.77 µM (inactive) in test [9]; 3.03 µM (inactive) in test [10]; 2.86 µM (inactive) in [11]; 6.89 µM (inactive) in test [12]. Besides, the GI50 in test [13] is 2.26 µM (inactive); in test [14] it was 1.68 µM (inactive); in test [15] it was 3.19 µM (inactive); in test [16], 1.66 µM (inactive); in test [17], 1.99 µM (inactive); in [18], 3.57 µM (inactive). Moreover, the GI50 in [19] was 2.25 µM (inactive); in [20] it was 11.1 µM (inactive).

Take `CCC/N=C/c1cc(Cc2ccc(O)c(/C=N/CCC)c2)ccc1O`: the GI50 in test [1] is 2.37 µM (inactive); in test [2], 10.7 µM (inactive); in [3], 21.1 µM (inactive); in [4], 14.1 µM (inactive); in test [5], 2.21 µM (inactive); in test [6], 14.1 µM (inactive). Besides, the GI50 in test [7] is 4.09 µM (inactive); in test [8] it was 19.5 µM (inactive); in [9], 18.4 µM (inactive); in test [10], 2.91 µM (inactive); in [11] it was 5.47 µM (inactive); in test [12] it was 18.4 µM (inactive). Besides, the GI50 in test [13] was 12.9 µM (inactive); in test [14] it was 5.51 µM (inactive); in [15] it was 3.82 µM (inactive); in test [16], 2.7 µM (inactive); in [17], 1.95 µM (inactive); in test [18] it was 1.45 µM (inactive). The GI50 in [19] is 11.1 µM (inactive); in test [20] it was 17.1 µM (inactive).

For the molecule `CCOc1ccc(/C(C=O)=C(\Cl)c2ccc(OC)cc2)cc1`, the GI50 is > 100 µM (inactive) in [1]; > 100 µM (inactive) in test [2]; > 40 µM (inactive) in test [3]; 82.6 µM (inactive) in test [4]; 14.6 µM (inactive) in [5]; 46.7 µM (inactive) in [6]. Also, the GI50 in test [7] is > 100 µM (inactive); in test [8] it was > 70.5 µM (inactive); in test [9], > 100 µM (inactive); in [10], > 100 µM (inactive); in test [11], 9.82 µM (inactive); in test [12], > 100 µM (inactive). Also, the GI50 in [13] was > 100 µM (inactive); in [14], 41.7 µM (inactive); in test [15], > 100 µM (inactive); in test [16], > 91.8 µM (inactive); in [17], 5.16 µM (inactive); in test [18], 24.2 µM (inactive). Moreover, the GI50 in test [19] is > 100 µM (inactive); in test [20], > 57.1 µM (inactive).

With `C=C1C(O)C2OC(=O)C(=C)C2C(OC(=O)/C(C)=C/C)CC2(C)OC2C2OC12` (configuration not stated), the GI50 in test [1] was 15.3 µM (inactive); in test [2], 7.71 µM (inactive); in [3], 10.2 µM (inactive); in [4], 4.89 µM (inactive); in test [5] it was 2.52 µM (inactive); in [6], 14.5 µM (inactive). In addition, the GI50 was 6.15 µM (inactive) in [7]; 10.3 µM (inactive) in [8]; 3.78 µM (inactive) in test [9]; 6.28 µM (inactive) in test [10]; 2.71 µM (inactive) in test [11]; 5.89 µM (inactive) in test [12]. For the same molecule, the GI50 in test [13] was 14.2 µM (inactive); in test [14], 6.22 µM (inactive); in test [15], 2.82 µM (inactive); in test [16], 19.5 µM (inactive); in [17] it was 1.93 µM (inactive); in test [18] it was 14.3 µM (inactive). In addition, the GI50 in [19] was 14.4 µM (inactive); in [20], 5.98 µM (inactive).

Take `O=[N+]([O-])c1cccc(-c2ccc([C@H]3CC(c4ccc(Cl)cc4)=NN3)o2)c1`: the GI50 in test [1] is 31.6 µM (inactive); in [2], 17.6 µM (inactive); in test [3] it was 26.1 µM (inactive); in [4], 16.6 µM (inactive); in test [5], 0.893 µM (active); in [6] it was 20.3 µM (inactive). The GI50 in test [7] was 21 µM (inactive); in test [8], 15.8 µM (inactive); in test [10], 18.9 µM (inactive); in test [11] it was 23.2 µM (inactive); in test [12] it was 31.7 µM (inactive); in test [13], 44.8 µM (inactive). Moreover, the GI50 in test [14] was 13.8 µM (inactive); in [15] it was 16.7 µM (inactive); in [16], 38.4 µM (inactive); in test [17], 0.433 µM (active); in [18], 11.4 µM (inactive); in test [19], 19.6 µM (inactive). In test [20], the GI50 is 22.1 µM (inactive).
